Laboratory results reported in patent publication US20200016231A1, “BIOFILM DISRUPTING COMPOSITION” (Whiteley Corporation Pty Ltd, priority 2016, published 2020).
Like-named read-outs stand apart in the source and are kept apart here.

How the values were obtained:
[1] = tested on: methicillin-resistant Staphylococcus aureus; experiment: microbe, parasite or virus in culture; conditions: MRSA
E. cloacae = experiment: Biofilm viability, resazurin assay, Enterobacter species: E. cloacae; assay type: cell-based; conditions: read-out: % bacterial viability; for viability at 10000 µM: GSH 10 mM; for viability at 15000 µM: GSH 15 mM; for viability at 30000 µM: GSH 30 mM
Protocol: Bacterial isolates were grown in Tryptone Soya Broth (TSB) medium for 24 hours at 37° C., in a shaking incubator set at 150 rpm. After this time the organisms were harvested by centrifugation (5000×g, 5 min at 10° C.). After centrifugation, the supernatant liquid was removed and the bacterial pellet was suspended in 1×Phosphate Buffered Saline (PBS). To initiate biofilm growth, the bacterial suspension from PBS was immediately re-suspended in TSB and 250 μL of bacterial cell suspension (OD600=0.5±0.05) were added into the wells of 96-well plates (Corning Corp. USA) and incubated at 37° C. for 48 h at 150 r.p.m.
After 24 h, treated biofilms supernatant were replaced with 200 μL of 1×PBS, followed by addition of 15 μL of a 0.05% w/v solution of resazurin (Sigma-Aldrich), and incubated further at 37° C., 150 r.p.m.
After a further 24 h, the fluorescent intensity of the biofilm was determined at Ex544 nm and Em590 nm (Tecan infinite M1000 pro microplate reader). Results are plotted as percentage (%) of bacterial vaiability calculated based on fluorescent intensity. Control or untreated bacterial biofilm fluorescent intensity always considered as 100% bacterial viability and % viability under rest of treatment conditions were calculated with reference to control.
It should be noted that the Resazurin assay works by recording fluorescence intensity and depends upon two factors (total number of bacteria and total number of viable bacteria in a given biofilm sample).
The treatments shown in column 1 of Table 8 were tested against three clinical isolates of Enterobacter species.

[2] = E. cloacae 359315 Left foot wound

`N[C@@H](CCC(=O)N[C@@H](CS)C(=O)NCC(=O)O)C(=O)O` [GSH, glutathione] gave a viability at 10000 µM ([1]; read-out: % bacterial viability, MRSA 27060 Left leg, GSH 10 mM) of 88.8%, a viability at 15000 µM ([1]; read-out: % bacterial viability, MRSA 27060 Left leg, GSH 15 mM) of 65.2% and a viability at 30000 µM ([1]; read-out: % bacterial viability, MRSA 27060 Left leg, GSH 30 mM) of 1.02%. For the same compound, the viability at 10000 µM ([1]; read-out: % bacterial viability, MRSA 30616 Chin vesicle, GSH 10 mM) was 73.1%, the viability at 15000 µM ([1]; read-out: % bacterial viability, MRSA 30616 Chin vesicle, GSH 15 mM) was 58.8% and the viability at 30000 µM ([1]; read-out: % bacterial viability, MRSA 30616 Chin vesicle, GSH 30 mM) was 4.54%. For the same compound, the viability at 10000 µM ([1]; read-out: % bacterial viability, MRSA - 0799 DFU, GSH 10 mM) was 86.7%, the viability at 15000 µM ([1]; read-out: % bacterial viability, MRSA - 0799 DFU, GSH 15 mM) was 75% and the viability at 30000 µM ([1]; read-out: % bacterial viability, MRSA - 0799 DFU, GSH 30 mM) was 33.1%. For the same compound, the viability at 10000 µM (E. cloacae; E. cloacae 357768 Ear) was 62.8%, the viability at 15000 µM (E. cloacae; E. cloacae 357768 Ear) was 38.9% and the viability at 30000 µM (E. cloacae; E. cloacae 357768 Ear) was 0%. For the same compound, the viability at 10000 µM (E. cloacae; [2]) was 84.7%, the viability at 15000 µM (E. cloacae; [2]) was 74% and the viability at 30000 µM (E. cloacae; [2]) was 19.5%.
